{
  "source": "patent US20090215666A1",
  "about": "“VIVIT POLYPEPTIDES, THERAPEUTIC AGENT COMPRISING THE SAME, AND METHOD OF SCREENING FOR ANTI-CANCER AGENT” (Oncotherapy Science, Inc., priority 2005, published 2009)",
  "key": {"PK-1 cells [1]": {"system": "PK-1 cells", "assay": "MTT cell-growth assay for evaluation of inhibitory peptides", "assay_type": "cell-based, Human", "settings": "FIG. 4"}, "PK-1 cells [2]": {"system": "PK-1 cells", "assay": "Flow cytometric analysis of sub-G1 fraction (propidium iodide)", "assay_type": "cell-based, Human", "settings": "40 μM, 12 hr, FIG. 7", "procedure": "PK-1 cell was maintained as described before (RPMI with 10% FBS). The cells were incubated with or without negative control (40 μM as a final concentration) or C1958VIVIT (10, 20, and 40 μM) peptide for 12 hr. After the incubation, cells were detached by trypsin and collected to tubes and washed with PBS for 3 times. Then the cells were fixed with 67% ethanol for 30 min at room temperature (RT), washed with PBS once, and treated with RNase (2 mg/ml in PBS) for 30 min at RT. Finally the cell nuclei were stained with propidium iodide (PI) for 30 min at RT. Flow cytometric analysis was done with FACS calibur (BD)."}, "[3]": {"set-up": "species or system mice (BALB/cA Jcl-nu)", "settings": "mouse, in vivo, 9 mg/kg/day", "procedure": "In vivo experiments were performed in our animal facility in accordance with institutional guidelines. A 0.1-ml aliquot of suspended PK-1 cells (5×10^6 cells) was injected subcutaneously into the flanks of six-week-old female athymic mice (BALB/cA Jcl-nu). Tumor volumes were determined using the formula: 0.52×(larger diameter)×(smaller diameter)×(depth). When the xenograft reached to 100 mm^3 in size, animals were randomly divided into two or three groups and received intratumoral or intravenous injection of 180 μg of 11R-C1958VIVIT, 11R-VEET, or PBS for 21 consecutive days. Tumor growth was assessed by calculating the ratio of tumor volume on the indicated day to the volume calculated on the initiation of treatment."}},
  "note": "Ends that are not written are not given here.",
  "data": [
    {"substance": "RRRRRRRRRRR-GGG-KHLDVPDIIITPPTPT [11R-C1958]", "values": [
      {"measurement": "inhibition of growth of the cells (MTT assay)", "setting": "PK-1 cells [1]; peptide 25 μM", "value": "neither 11R—C1958 (25 μM) nor 11R-VEET (40 μM) peptides, significantly inhibited the growth of the cells"}
    ]},
    {"substance": "RRRRRRRRRRR-GGG-MAGPPHIVEETGPHVI (RRRRRRRRRRRGGGMAGPPHIVEETGPHVI; Artificially synthesized peptide for inhibition of the interaction of C1958 and PPP3CA as control) [11R-VEET, 10, reference compound]", "values": [
      {"measurement": "inhibition of growth of the cells (MTT assay)", "setting": "PK-1 cells [1]; peptide 40 μM", "value": "neither 11R—C1958 (25 μM) nor 11R-VEET (40 μM) peptides, significantly inhibited the growth of the cells"},
      {"measurement": "sub-G1 fraction of the treated cells", "setting": "PK-1 cells [2]", "value": "did not affect"}
    ]},
    {"substance": "RRRRRRRRRRRGGGKHLDVPVIVITPPTPT [11R-C1958VIVIT, RRRRRRRRRRR-GGG-KHLDVPVIVITPPTPT]", "values": [
      {"measurement": "apparent negative effects on mice conditions", "setting": "[3]", "value": "nor apparent negative effects on mice conditions were observed"}
    ]}
  ]
}
